One block for each compound: values may come before it. Calls of active or inactive are those of the source.
How the values were obtained:
[1] = human group III sPLA2 inhibitors, dose response, biochemical, QFRET, IC50 (AID 743457);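 further: green fluorescence rise as the enzyme cleaves BODIPY PC-A2 in liposomes; potency for inhibition of the enzyme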
[2] = molecular target: ADP-ribosylation factor GTPase-activating protein 1 (Rattus norvegicus, UniProt Q62848); assay: Fluorescence polarization-based biochemical high throughput dose response screening assay to identify inhibitors of ADP-ribosylation factor GTPase activating protein 1 (ARFGAP1).; type: functional
Sequence of ADP-ribosylation factor GTPase-activating protein 1 (Q62848 whole entry): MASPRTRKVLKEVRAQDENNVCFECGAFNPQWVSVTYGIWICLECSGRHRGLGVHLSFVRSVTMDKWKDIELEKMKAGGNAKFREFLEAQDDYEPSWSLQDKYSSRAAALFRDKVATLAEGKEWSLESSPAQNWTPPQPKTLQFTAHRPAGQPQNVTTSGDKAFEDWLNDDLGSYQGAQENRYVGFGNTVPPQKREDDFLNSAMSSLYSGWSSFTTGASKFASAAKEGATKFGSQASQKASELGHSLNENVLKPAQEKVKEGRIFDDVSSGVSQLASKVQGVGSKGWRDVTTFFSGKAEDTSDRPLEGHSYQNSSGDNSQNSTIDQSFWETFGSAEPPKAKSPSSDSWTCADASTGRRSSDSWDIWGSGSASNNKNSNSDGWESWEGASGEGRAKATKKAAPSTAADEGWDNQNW

A549 = assay: A549 cell toxicity, dose response, cytotoxicity control, plate reader, cherry-pick samples (AID 687028); type: functional, cell-based; details: Homo sapiens
BHK-21 = assay: BHK-21 cell toxicity, dose response, cytotoxicity control, plate reader, cherry-pick samples (AID 687030); type: functional, cell-based; details: Mesocricetus auratus
[3] = molecular target: SWI/SNF-related matrix-associated actin-dependent regulator of chromatin subfamily A member 2 (Homo sapiens, UniProt P51531); assay: Luminescence-based cell-based high throughput dose response assay to identify activators of the function of SWI/SNF related, matrix associated, actin dependent regulator of chromatin, subfamily a, member 2 (SMARCA2, BRM).; type: functional
Sequence of SWI/SNF-related matrix-associated actin-dependent regulator of chromatin subfamily A member 2 (P51531 whole entry): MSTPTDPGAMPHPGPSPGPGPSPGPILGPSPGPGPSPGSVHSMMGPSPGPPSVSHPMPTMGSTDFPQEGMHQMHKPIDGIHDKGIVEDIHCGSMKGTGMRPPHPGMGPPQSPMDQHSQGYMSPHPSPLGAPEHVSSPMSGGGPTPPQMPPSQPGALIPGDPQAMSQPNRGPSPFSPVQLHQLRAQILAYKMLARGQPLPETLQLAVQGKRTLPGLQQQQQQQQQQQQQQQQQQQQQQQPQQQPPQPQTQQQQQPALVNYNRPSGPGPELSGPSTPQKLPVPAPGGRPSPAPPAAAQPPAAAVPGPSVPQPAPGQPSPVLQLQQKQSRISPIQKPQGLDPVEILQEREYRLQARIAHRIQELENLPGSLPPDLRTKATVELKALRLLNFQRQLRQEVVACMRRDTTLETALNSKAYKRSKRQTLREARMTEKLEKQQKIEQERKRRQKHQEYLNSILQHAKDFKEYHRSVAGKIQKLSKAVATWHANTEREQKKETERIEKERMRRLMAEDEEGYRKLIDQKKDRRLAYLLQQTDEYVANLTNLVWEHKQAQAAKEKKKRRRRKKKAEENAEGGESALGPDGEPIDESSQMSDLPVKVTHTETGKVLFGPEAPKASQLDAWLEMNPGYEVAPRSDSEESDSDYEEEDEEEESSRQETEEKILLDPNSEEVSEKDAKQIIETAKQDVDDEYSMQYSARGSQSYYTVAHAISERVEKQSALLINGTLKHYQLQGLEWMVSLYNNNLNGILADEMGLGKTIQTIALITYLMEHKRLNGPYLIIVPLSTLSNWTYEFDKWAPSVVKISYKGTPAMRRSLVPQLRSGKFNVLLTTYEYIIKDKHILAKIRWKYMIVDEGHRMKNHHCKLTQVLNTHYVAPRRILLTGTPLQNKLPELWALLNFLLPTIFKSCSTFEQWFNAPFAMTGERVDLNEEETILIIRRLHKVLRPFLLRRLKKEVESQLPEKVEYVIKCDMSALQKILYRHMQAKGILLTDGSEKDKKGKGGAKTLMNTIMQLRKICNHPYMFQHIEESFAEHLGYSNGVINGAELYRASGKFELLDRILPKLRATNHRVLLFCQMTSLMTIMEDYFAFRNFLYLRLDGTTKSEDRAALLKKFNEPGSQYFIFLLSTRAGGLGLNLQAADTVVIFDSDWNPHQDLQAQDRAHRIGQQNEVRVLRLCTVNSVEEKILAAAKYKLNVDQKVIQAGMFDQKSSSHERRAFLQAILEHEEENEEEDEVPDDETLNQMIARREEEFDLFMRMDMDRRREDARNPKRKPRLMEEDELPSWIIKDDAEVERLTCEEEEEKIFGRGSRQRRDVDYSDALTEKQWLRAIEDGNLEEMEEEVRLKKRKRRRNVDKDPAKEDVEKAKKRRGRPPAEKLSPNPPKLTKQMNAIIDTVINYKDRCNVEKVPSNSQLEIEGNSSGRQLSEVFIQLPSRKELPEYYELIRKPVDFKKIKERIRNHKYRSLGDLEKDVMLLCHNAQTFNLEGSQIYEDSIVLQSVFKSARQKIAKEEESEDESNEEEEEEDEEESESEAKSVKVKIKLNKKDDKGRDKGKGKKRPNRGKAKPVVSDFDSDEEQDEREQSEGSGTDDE

[4] = Counterscreen for activators of the function of SWI/SNF related, matrix associated, actin dependent regulator of chromatin, subfamily a, member 2 (SMARCA2, BRM): Luminescence-based cell-based high throughput dose response assay to identify non-selective compounds using the VP16 reporter assay.; type: functional
[5] = molecular target: Nuclear receptor subfamily 5 group A member 2 (Homo sapiens, UniProt O00482); type: functional, cell-based;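 further: HEK293T cells transfected with LRH-1 and a StAR promoter luciferase reporter; potency for inhibitors that lower LRH-1 driven reporter light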
Sequence of Nuclear receptor subfamily 5 group A member 2 (O00482 whole entry): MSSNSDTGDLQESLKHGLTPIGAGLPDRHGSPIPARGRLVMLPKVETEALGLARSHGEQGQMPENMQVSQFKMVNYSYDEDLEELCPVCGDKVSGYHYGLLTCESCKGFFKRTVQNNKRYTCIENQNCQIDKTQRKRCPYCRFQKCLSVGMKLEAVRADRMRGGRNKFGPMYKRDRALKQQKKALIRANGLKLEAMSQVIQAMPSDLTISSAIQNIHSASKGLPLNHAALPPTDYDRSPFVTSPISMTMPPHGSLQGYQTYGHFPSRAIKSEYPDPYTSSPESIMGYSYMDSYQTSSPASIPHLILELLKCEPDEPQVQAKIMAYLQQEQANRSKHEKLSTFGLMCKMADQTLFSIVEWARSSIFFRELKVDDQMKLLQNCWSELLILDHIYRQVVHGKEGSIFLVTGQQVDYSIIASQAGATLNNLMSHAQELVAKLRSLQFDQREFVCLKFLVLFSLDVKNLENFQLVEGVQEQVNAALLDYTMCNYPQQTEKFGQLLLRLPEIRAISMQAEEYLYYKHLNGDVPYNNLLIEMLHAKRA

[6] = StAR promoter reporter inhibition counter-screen, dose response, counter-screen for LRH-1 inverse agonist project, cell-based, luminescence, luciferase reporter (AID 651969); type: functional
Steroidogenic factor 1 = Steroidogenic factor 1 (Homo sapiens, UniProt Q13285); assay: Counterscreen for inverse agonists of the liver receptor homolog-1 (LRH-1; NR5A2): Luminescence-based cell-based high throughput dose response assay to identify inverse agonists of the Steroidogenic Factor 1 Nuclear Receptor (SF1; NR5A1).; type: functional
Sequence of Steroidogenic factor 1 (Q13285 whole entry): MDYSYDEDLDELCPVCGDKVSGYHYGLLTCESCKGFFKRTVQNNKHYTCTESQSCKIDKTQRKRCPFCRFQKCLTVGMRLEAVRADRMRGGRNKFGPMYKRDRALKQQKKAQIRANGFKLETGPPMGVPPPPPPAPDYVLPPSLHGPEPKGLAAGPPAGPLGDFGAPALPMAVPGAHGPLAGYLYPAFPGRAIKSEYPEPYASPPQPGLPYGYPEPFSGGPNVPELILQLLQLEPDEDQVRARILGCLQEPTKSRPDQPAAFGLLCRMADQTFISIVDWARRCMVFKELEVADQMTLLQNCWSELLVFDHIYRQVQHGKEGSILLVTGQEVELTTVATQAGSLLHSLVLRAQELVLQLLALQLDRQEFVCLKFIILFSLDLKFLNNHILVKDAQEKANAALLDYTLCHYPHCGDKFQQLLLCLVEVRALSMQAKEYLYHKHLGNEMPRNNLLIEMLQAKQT

BJ [7] = assay: cells; type: functional, cell-based; details: Homo sapiens
[8] = molecular target: Photoreceptor-specific nuclear receptor (Homo sapiens, UniProt Q9Y5X4); type: functional, cell-based;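 further: CHO-S cells with Gal4-NCOR and VP16-NR2E3 two-hybrid luciferase reporter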
Sequence of Photoreceptor-specific nuclear receptor (Q9Y5X4 whole entry, the tested form may be a part): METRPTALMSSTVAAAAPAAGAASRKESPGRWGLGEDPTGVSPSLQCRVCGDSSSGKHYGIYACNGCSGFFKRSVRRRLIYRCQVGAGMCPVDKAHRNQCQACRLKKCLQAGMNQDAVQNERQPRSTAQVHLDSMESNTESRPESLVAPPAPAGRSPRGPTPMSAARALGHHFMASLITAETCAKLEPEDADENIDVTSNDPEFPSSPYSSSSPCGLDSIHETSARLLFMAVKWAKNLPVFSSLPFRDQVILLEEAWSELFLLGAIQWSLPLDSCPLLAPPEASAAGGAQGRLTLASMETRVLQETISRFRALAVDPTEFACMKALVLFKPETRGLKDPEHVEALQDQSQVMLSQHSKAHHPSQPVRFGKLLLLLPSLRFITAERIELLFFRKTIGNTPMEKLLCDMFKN

[9] = cytotoxicity toward DRD oncogenic fibroblasts, dose response, cell-based, non-viral oncogenic, luminescence (AID 1934); type: functional; details: Homo sapiens
BJ [10] = assay: cytotoxicity toward Ras-transformed BJeLR fibroblasts, dose response, cell-based, alamar blue fluorescence, cherrypicked samples (AID 2631); type: functional; details: Homo sapiens;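 further: confirmatory dose-response assay in RAS-dependent BJ fibroblasts engineered with TERT, LT and ST, with cytotoxicity read by fluorescence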
BJ [11] = assay: cytotoxicity toward BJ-TERT-LT-ST fibroblasts, dose response, cell-based, RAS-independent, luminescence (AID 1935); type: functional; details: Homo sapiens;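 further: BJ fibroblasts immortalized with TERT plus LT and ST oncogenes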
[12] = cytotoxicity in HEK-293T cells, dose response, cytotoxicity control for TCR NF-kB inhibitor project, luminescence, T-cell screen hits (AID 489026); type: functional, cell-based;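 further: cells exposed to compound about 14 hours before the viability readout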
BJ [13] = assay: cytotoxicity toward BJ-TERT fibroblasts, dose response, cell-based, RAS-independent, luminescence (AID 1933); type: functional; details: Homo sapiens
[14] = molecular target: T1, Matrix metalloproteinase-14 (Homo sapiens, UniProt P50281); assay: SAR confirmation of uHTS hits for a small molecule inhibitors of MT1-MMP activation in a fluorescence assay.; type: functional
[15] = molecular target: T1, Matrix metalloproteinase-14; assay: Dose Response confirmation of uHTS hits for a small molecule inhibitors of MT1-MMP activation in a fluorescence assay set 1.; type: functional
[16] = miR-122 activators in hepatoma reporter cells, dose response, cell-based, Huh7 psiCHECK-miR122, Renilla luciferase, cherry-picked (AID 651956); type: functional;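 further: huh7 hepatoma cells stably carrying a psiCHECK-2 miR-122 sensor plasmid; renilla luciferase signal reporting endogenous miR-122 activity after 48 h compound exposure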
cells [17] = type: functional, cell-based
cells [18] = type: functional, cell-based; remark: listed apart in the source
[19] = cytotoxicity in OVCAR8 ovarian cancer cells, dose response, PAX8 project, cell-based, plate reader, dry powder samples (AID 743197); type: functional; details: OVCAR-8
[20] = NIH:OVCAR-3 ovarian cancer cell cytotoxicity, dose response, PAX8 inhibitor project, plate reader, dry powder samples (AID 743044); type: functional, cell-based
Paired box protein Pax-8 = Paired box protein Pax-8 (Homo sapiens, UniProt Q06710); assay: inhibitors of PAX8-driven TPO luciferase reporter, dose response, RMG-I cells, cherry-pick (AID 687027); type: functional, cell-based;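 further: luciferase reporter driven by Pax8 target thyroperoxidase promoter measured by SteadyGlo luminescence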
Sequence of Paired box protein Pax-8 (Q06710 whole entry): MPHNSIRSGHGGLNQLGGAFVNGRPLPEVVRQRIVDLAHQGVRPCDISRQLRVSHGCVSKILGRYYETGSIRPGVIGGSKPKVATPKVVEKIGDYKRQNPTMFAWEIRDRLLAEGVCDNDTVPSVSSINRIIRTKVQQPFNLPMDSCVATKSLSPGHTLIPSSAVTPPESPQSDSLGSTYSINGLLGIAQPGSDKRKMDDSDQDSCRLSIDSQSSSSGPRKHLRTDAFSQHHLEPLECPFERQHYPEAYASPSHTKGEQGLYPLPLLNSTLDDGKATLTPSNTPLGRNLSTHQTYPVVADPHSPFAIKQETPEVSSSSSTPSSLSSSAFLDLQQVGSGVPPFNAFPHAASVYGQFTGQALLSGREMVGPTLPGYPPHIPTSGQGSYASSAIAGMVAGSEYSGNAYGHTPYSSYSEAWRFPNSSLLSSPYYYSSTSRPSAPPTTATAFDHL

[21] = IGROV1 ovarian cancer cell cytotoxicity, dose response, PAX8 inhibitor project, plate reader, dry powder samples (AID 743043); type: functional, cell-based; details: IGROV-1
[22] = A2780 ovarian cancer cell cytotoxicity, dose response, cytotoxicity control, plate reader, dry powder samples (AID 743046); type: functional, cell-based
[23] = HEK293 cell viability, dose response, counter-screen for EBV LMP1 inhibitor project, dry powder, set 2 (AID 624374); type: functional
Protein Wnt-3a = Protein Wnt-3a (Mus musculus, UniProt P27467); assay: SAR analysis of small molecule antagonists of Gli-SUFU in a Wnt3a luminescent reporter assay.; type: functional
Sequence of Protein Wnt-3a (P27467 whole entry): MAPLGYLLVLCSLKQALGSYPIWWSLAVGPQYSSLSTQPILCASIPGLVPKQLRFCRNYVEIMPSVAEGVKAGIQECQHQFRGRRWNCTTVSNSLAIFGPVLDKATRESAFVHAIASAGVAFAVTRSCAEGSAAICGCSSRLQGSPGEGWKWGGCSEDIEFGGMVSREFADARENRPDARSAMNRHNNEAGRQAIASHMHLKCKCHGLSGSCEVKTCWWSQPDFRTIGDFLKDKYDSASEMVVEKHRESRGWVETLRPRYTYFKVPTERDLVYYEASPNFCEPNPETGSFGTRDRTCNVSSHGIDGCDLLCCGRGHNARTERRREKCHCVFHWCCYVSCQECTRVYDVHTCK

[24] = A549 cell cytotoxicity, dose response, cytotoxicity control, plate reader, cherry-pick, antagonist series (AID 743412); type: functional, cell-based
[25] = LGR2 antagonists, dose response, cell-based, HEK293, CRE-luciferase reporter, cherry pick (AID 743342); type: functional
[26] = molecular target: Disintegrin and metalloproteinase domain-containing protein 17 (Homo sapiens, UniProt P78536); assay: ADAM17 protease inhibitors, dose response, counter-screen for ADAM10 exosite inhibitor project, biochemical, quenched FRET substrate (AID 743253)
Sequence of Disintegrin and metalloproteinase domain-containing protein 17 (P78536 whole entry, the tested form may be a part): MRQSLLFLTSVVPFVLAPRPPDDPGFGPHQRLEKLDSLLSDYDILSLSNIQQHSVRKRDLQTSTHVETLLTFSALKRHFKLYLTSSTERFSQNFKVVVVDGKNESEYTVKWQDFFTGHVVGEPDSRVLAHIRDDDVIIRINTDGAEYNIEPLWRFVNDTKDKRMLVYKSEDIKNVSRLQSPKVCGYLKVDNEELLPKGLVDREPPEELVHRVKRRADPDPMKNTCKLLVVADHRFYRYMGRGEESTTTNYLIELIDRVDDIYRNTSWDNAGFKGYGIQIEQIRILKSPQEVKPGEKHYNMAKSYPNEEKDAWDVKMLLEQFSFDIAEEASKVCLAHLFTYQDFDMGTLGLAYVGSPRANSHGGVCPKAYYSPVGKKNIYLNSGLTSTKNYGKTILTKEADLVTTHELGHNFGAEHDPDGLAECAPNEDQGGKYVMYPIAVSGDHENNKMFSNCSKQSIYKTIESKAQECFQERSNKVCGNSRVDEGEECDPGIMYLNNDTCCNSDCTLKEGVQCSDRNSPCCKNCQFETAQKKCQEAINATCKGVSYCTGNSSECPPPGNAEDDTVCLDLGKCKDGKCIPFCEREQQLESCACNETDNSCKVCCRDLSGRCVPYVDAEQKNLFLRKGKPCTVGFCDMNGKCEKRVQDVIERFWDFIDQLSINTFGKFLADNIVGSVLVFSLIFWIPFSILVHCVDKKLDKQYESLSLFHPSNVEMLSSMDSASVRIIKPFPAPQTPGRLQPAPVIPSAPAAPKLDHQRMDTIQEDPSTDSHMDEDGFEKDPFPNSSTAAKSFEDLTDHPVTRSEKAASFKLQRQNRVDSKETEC

[27] = ADAM10 inhibitors, peptide cleavage, dose response, biochemical, QFRET (AID 743254);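 further: ADAM10 enzyme with the DM2 quenched FRET peptide as substrate; EDANS fluorescence gain as the protease cuts the substrate; inhibitor potency against ADAM10 proteolytic activity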
[28] = molecular target: T2, Tyrosine-protein phosphatase non-receptor type 22 (Homo sapiens, UniProt Q9Y2R2); assay: LYP phosphatase inhibition for selectivity, dose response, selectivity assay for LMPTP inhibitor project, biochemical, fluorescence, LYP catalytic domain (AID 652006); type: functional; details: read-out: IC50_Mean
T2 sequence (Q9Y2R2 whole entry): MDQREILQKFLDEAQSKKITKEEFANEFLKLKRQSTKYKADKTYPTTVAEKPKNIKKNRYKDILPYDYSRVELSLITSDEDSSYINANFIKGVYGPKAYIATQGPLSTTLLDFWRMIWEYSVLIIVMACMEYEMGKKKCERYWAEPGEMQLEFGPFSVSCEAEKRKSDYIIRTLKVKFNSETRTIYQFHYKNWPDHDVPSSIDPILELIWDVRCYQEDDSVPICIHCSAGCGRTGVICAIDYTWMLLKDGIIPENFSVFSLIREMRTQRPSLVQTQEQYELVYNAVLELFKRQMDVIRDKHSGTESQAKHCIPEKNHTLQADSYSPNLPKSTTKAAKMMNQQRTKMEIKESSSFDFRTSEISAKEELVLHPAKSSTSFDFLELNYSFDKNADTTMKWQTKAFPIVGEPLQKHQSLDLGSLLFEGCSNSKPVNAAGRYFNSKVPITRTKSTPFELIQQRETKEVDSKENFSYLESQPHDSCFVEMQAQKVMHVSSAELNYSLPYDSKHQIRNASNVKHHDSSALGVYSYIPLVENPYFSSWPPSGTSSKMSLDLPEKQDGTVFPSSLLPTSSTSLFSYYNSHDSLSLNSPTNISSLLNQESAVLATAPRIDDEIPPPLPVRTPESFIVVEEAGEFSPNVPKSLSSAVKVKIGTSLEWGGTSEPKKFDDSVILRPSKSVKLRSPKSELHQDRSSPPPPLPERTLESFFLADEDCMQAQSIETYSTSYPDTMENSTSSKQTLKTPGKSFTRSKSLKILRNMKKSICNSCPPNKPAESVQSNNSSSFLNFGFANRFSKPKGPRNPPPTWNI

[29] = molecular target: T3, Low molecular weight phosphotyrosine protein phosphatase (Homo sapiens, UniProt P24666); type: functional; details: read-out: IC50_Mean
T3 sequence (P24666 whole entry): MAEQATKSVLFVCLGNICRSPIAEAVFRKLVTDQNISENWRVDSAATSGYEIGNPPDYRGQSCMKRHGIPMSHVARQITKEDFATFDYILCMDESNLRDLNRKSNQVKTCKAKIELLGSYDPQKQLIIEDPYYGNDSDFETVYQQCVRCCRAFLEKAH

[30] = molecular target: T4, Carboxy-terminal domain RNA polymerase II polypeptide A small phosphatase 1 (Homo sapiens, UniProt Q9GZU7); assay: inhibitors of CTDSP1, concentration-response testing, biochemical assay, absorbance-based, actives from ultra-high-throughput screening (AID 540297); type: functional
T4 sequence (Q9GZU7 whole entry): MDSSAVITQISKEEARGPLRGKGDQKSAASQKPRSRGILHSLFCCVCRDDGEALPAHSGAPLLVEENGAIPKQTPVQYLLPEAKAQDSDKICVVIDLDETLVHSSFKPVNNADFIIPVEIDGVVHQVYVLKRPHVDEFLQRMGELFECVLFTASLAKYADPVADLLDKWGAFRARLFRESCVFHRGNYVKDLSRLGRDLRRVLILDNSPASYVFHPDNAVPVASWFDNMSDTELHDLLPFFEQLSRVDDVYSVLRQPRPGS

[31] = molecular target: T3, Low molecular weight phosphotyrosine protein phosphatase; type: functional; details: read-out: IC50_Mean; remark: listed apart in the source

IC50 [1]: > 122 µM (inactive)
Structure (SMILES): Cc1cc(C(=O)NN=C(S)Nc2cccc(C(F)(F)F)c2)nn1C

IC50 [2]: 133 µM (inactive)
Structure (SMILES): Cc1ccc2nc3c(O)n(CC(=O)N4CC(C)CC(C)C4)ncc-3c2c1 (stereo unspecified)

Structure (SMILES): CN(c1cccc(NC(=O)c2ccc(C(C)(C)C)cc2)c1)S(C)(=O)=O
AC50 (A549): 23.1 µM (active) | AC50 (BHK-21): 22.6 µM (active)

Structure (SMILES): O=C1/C(=C/c2ccco2)Cc2ccccc21
EC50 [3]: > 91.1 µM (inactive) | EC50 [4]: > 91.1 µM (inactive)

Structure (SMILES): O=C(CSc1n[nH]c(-c2ccccc2)n1)Nc1ccc(F)cc1F
IC50 [5]: 3.99 µM (active) | IC50 [6]: 35.9 µM (inactive) | IC50 (Steroidogenic factor 1): 3.68 µM (active)

Structure (SMILES): Cc1cccc(NS(=O)(=O)c2ccc(-c3cnc(C4CC4)o3)cc2)c1C
EC50 (BJ [7]): 2.51 µM (active) | IC50 [8]: 6.35 µM (active) | EC50 [9]: 2.74 µM (inconclusive) | EC50 (BJ [10]): < 0.104 µM (active) | EC50 (BJ [11]): 2.88 µM (inconclusive) | IC50 [12]: 67.5 µM (inactive) | EC50 (BJ [13]): 2.67 µM (active)

IC50 [14]: > 80 µM (inactive) | IC50 [15]: 11.9 µM (active)
Structure (SMILES): Cc1c(C(=O)OCC(=O)NCC2CCCO2)oc2ccccc12 (stereo unspecified)

Structure (SMILES): C[C@@H]1CN([C@H](C)CO)C(=O)c2cc(-c3cccc(C#N)c3)cnc2O[C@H]1CN(C)C(=O)C1CCC1
AC50 [16]: 53.7 µM (active)

Structure (SMILES): CC(CNC(=O)[C@@H](Cc1ccccc1)NC(=O)[C@H]1O[C@@H](n2cnc3c(=O)[nH]c(N)nc32)[C@H](O)[C@@H]1O)c1ccccc1 (stereo partly specified)
IC50 (cells [17]): > 29.9 µM (inactive) | EC50 (cells [18]): > 29.9 µM (inactive)

Structure (SMILES): C[C@@H]1CN([C@H](C)CO)C(=O)c2cc(NS(=O)(=O)c3ccc(Cl)cc3)ccc2O[C@@H](C)CCCCO[C@H]1CN(C)S(=O)(=O)c1ccc(Cl)cc1
AC50 [19]: 25.1 µM (active) | AC50 [20]: 15.9 µM (active) | AC50 (Paired box protein Pax-8): 4.76 µM (active) | AC50 [21]: 32.9 µM (active) | AC50 [22]: 54.6 µM (active)

Structure (SMILES): C[C@@H]1CN([C@@H](C)CO)C(=O)c2c(c3ccccc3n2C)-c2ccccc2CO[C@@H]1CN(C)C(=O)Nc1ccc(F)cc1
AbsAC35 [23]: 304.17 µM

IC50 (Protein Wnt-3a): > 21.8 µM (inactive)
Structure (SMILES): O=C(Nc1cc(NCC2CCCO2)ncn1)c1ccccc1 (stereo unspecified)

Structure (SMILES): COc1ccc(NC(=O)N(C)C[C@@H]2OCCCC[C@H](C)Oc3ccc(NC(=O)C4CCCCC4)cc3C(=O)N([C@H](C)CO)C[C@@H]2C)cc1
AC50 [24]: 27.8 µM (active) | AC50 [25]: 2.67 µM (active)

IC50 [26]: > 69.5 µM (inactive) | IC50 [27]: > 69.5 µM (inactive)
Structure (SMILES): CNC(=S)N/N=C/c1cn(CCOc2ccc(OC)cc2)c2ccccc12

IC50 [28]: 41.4 µM (inactive) | IC50 [29]: 39.7 µM (inactive) | IC50 [30]: 4.51 µM (active) | IC50 [31]: 12.2 µM (active)
Structure (SMILES): O=C(N/N=C/c1cccc(Br)c1)c1ccc(Br)cc1

From ChEMBL document CHEMBL1201862, “PubChem BioAssay data set” (2004)
